SMILES strings stand for the structures.

Here are results for four compounds from patent US20120010161A1, “NOVEL AZAPEPTIDE OR AZAPEPTIDOMIMETIC COMPOUNDS INHIBITING BCRP AND/OR P-GP” (CENTRE NATIONAL DE LA RECHERCHE SCIENTIFIQUE, priority 2009, published 2012).

This data set addresses T1, P-gp/ABCB1 (Homo sapiens, UniProt P08183).
T1 construct: expressed in transfected cells; host or cells: NIH3T3 transfected with pHaMDR1/A
In words: Flow cytometry: mitoxantrone efflux induced by ABCB1 in transfected NIH3T3 cells. The data set is classed as cell-based. The following applies: for inhibition at 2 μM / inhibition at 10 μM: human, NIH3T3 cells transfected with ABCB1 (vector pHaMDR1/A), probe mitoxantrone (5 μM); for inhibition at 2 μM: 2 μM compound, read-out: P-gp/ABCB1 % efficacy 2 μM; for inhibition at 10 μM: 10 μM compound, read-out: P-gp/ABCB1 % efficacy 10 μM. An excerpt: Cell cultures. The human […] HEK-293 transfected with the vector pcDNA3.1 including or not the gene encoding ABCG2 (Robey, R. W., Honjo, Y., Morisaki, K., Nadjem, T. A., Runge, S., Risbood, M., Poruchynsky, M. S., Bates, S. E. 2003, Br. J. Cancer 89(10) 1971-1978) was used to test the efficacy of the products on ABCG2. The newborn hamster kidney cell line BHK21 either natural (negative control) or transfected with the vector pNUT-MRP/His expressing the gene encoding ABCC1 (Chang, Xiu-Bao, Hou, Yue-Xian, Riordan, John R. 1997, J. Biol. Chem. 272(49) 30962-30968) was used to test the efficacy of the products on ABCC1. The cell line NIH3T3 natural or transfected with the vector pHaMDR1/A expressing ABCB1 (Cardarelli, Carol O., Aksentijevich, Ivan, Pastan, Ira, Gottesman, Michael M. 1995 Cancer Res. 55 1086-1091) was used to test the efficacy of the compounds on ABCB1. The various cell types are cultured according to the protocols described previously (Robey, R. W., Honjo, Y., Morisaki, K., Nadjem, T. A., Runge, S., Risbood, M., Poruchynsky, M. S., Bates, S. E. 2003, Br. J. Cancer 89(10) 1971-1978 for the line HEK293, Chang, Xiu-Bao, Hou, Yue-Xian, Riordan, John R. 1997, J. Biol. Chem. 272(49) 30962-30968 for the line BHK21 and Cardarelli, Carol O., Aksentijevich, Ivan, Pastan, Ira, Gottesman, Michael M. 1995 Cancer Res. 55 1086-1091 for the line NIH3T3).
FIG. 1 schematically illustrates an efflux of substrate induced by a typical ABC transporter. The substrates S, such as mitoxantrone effluxed with ABCG2 and ABCB1 or daunorubicin effluxed with ABCC1, are accumulated in the cells and expelled by the transporter T, leading to a decrease in intracellular fluorescence. In the case of accumulation of the product, typically by inhibition of the efflux protein, the intracellular fluorescence increases.
Flow cytometry. Transfected or untransfected HEK-293 and BHK-21 cells are in a first stage placed in contact with substrate (5 μM mitoxantrone or 1 μM daunorubicin depending on the transporter). The substrate is accumulated for 30 minutes at 37° C. in the presence or absence of varied concentrations of the test molecules, at 0.5% of DMSO final. After washing with PBS, the cells are incubated in medium containing the same concentrations of test molecules as previously, for 1 hour at 37° C. The drug intracellular fluorescence is measured with a FACscan flow cytometer (Becton Dickinson, Mountain View, Calif.). The fluorescent substrates are excited at 488 nm; the fluorescence emission of mitoxantrone (MTX) is measured at 650 nm and that of daunorubicin is measured at 530 nm. The efficacy of the test molecules is estimated by means of equation 1:
% efficacy=100×(FA−FBG)/(FC−FBG),
in which: • FA corresponds to the intracellular level of substrate measured in the cells overexpressing the transporter T (corresponding to the lowest level of fluorescence in the absence of inhibitor), • FC corresponds to the fluorescence in the control cells not expressing the test transporter. This is thus the maximum accumulation of substrate in the cells), • FBG corresponds to the fluorescence measured in the absence of substrate and in the presence of inhibitor.
The compounds presented in TABLES 2 to 5 were tested by flow cytometry on mammalian cell lines selectively expressing the efflux proteins ABCG2, ABCB1 or ABCC1, as described previously.
The mitoxantrone efflux induced by ABCG2 or ABCB1 and the daunorubicin efflux induced by ABCC1 are estimated by flow cytometry, as described previously, at 10 μM of each test compound, and then at 2 μM for the compounds showing at least 80% efficacy at 10 μM. The concentration inducing 50% inhibition (IC50) was estimated for the most efficient aza derivatives. The values are obtained by three independent experiments and were adjusted using the SigmaPlot software.
Background: Flow cytometry measures light scatter and fluorescence of single cells or particles in a stream.

T1 sequence (P08183 whole entry): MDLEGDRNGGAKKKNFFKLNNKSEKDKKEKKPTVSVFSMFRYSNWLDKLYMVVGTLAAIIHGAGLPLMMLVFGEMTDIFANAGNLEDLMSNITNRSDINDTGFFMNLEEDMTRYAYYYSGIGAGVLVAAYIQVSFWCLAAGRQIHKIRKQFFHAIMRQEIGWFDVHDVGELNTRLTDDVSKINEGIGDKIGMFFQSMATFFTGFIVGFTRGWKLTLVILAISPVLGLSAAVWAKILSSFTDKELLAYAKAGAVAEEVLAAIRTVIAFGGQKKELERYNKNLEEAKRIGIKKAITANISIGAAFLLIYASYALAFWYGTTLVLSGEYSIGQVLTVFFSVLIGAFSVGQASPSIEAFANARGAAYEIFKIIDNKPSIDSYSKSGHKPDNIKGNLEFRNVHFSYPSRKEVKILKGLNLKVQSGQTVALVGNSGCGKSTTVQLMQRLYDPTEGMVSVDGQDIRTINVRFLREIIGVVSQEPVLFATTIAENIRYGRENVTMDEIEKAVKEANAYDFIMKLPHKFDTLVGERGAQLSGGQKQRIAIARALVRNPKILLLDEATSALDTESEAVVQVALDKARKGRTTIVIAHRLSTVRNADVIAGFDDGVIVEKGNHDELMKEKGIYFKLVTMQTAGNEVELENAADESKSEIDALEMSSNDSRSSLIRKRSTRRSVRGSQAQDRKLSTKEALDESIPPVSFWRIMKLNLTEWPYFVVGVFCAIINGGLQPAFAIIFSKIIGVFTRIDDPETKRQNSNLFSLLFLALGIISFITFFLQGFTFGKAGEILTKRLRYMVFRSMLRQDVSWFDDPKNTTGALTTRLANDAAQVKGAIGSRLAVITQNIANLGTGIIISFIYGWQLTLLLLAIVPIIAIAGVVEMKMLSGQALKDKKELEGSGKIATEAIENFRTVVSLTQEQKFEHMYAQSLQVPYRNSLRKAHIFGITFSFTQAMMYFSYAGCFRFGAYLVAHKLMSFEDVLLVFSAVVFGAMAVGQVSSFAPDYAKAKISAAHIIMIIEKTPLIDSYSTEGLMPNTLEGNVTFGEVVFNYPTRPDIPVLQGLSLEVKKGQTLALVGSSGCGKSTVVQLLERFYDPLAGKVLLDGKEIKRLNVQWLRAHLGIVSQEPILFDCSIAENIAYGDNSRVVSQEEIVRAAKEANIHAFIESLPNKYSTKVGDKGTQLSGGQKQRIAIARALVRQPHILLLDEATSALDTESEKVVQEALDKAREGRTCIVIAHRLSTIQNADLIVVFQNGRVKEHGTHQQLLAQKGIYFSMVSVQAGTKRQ

As a reminder, the IC50 is the point on the concentration scale where inhibition reaches its midpoint. A high value points to weaker potency. Regarding `CC(C)(C)OC(=O)NN(C(=O)N[C@@H](CCCCNC(=O)OCc1ccccc1)C(=O)OC(C)(C)C)c1ccccc1C(=O)OCc1ccccc1` [IA.1, tert-Butyl ester of (2S)-6-(benzyloxycarbonylamino)-2-[1-(2′-(benzyloxycarbonyl)phenyl)-2-(tert-butoxycarbonyl)hydrazino-carbonylamino]hexanoic acid], the IC50 was not above 500 nM, the inhibition at 2 μM is 70 ± 10% and the inhibition at 10 μM is 74 ± 1%.

In the case of `CC(C)(C)OC(=O)NN(C(=O)N[C@@H](CCCCNC(=O)OCc1ccccc1)C(=O)OC(C)(C)C)c1cccc(C(=O)OCc2ccccc2)c1` [IA.2, tert-Butyl ester of (2S)-6-(benzyloxycarbonylamino)-2-[1-(3′-(benzyloxycarbonyl)phenyl)-2-(tert-butoxycarbonyl)hydrazino-carbonylamino]hexanoic acid], the inhibition at 10 μM was less than 50%.

Take `CC(C)(C)OC(=O)N[C@H](CNN(CCCCCCNC(=O)OCc1ccccc1)C(=O)OC(C)(C)C)CC(=O)OCc1ccccc1` [IB.1, Benzyl ester of (3S)-4-[2-(6-benzyloxycarbonylaminohexyl)-2-tert-butoxycarbonylhydrazino]-3-tert-butoxycarbonylaminobutyric acid]: the IC50 turned out to be 1000 nM; the “P-gp/ABCB1 IC50, μM” value is “micromolar or submicromolar”; the inhibition at 2 μM amounted to 70 ± 20%; the inhibition at 10 μM was 63 ± 5%.

As for `CC(C)(C)OC(=O)N[C@H](CNN(CCCCCCNC(=O)OCc1ccccc1)C(=O)OCc1ccccc1)CC(=O)OCc1ccccc1` [IB.11, Benzyl ester of (3S)-4-[2-benzyloxycarbonyl-2-(6-benzyloxycarbonylaminohexyl)hydrazino]-3-tert-butoxycarbonyl-aminobutyric acid], it took 700 ± 100 nM to reach half-maximal inhibition (IC50) and the “P-gp/ABCB1 IC50, μM” value is “micromolar or submicromolar”.
